In patent EP4667458A1 (Kanaph Therapeutics Inc., priority 2023, dated 2024):

Target: T1, KRAS^G12C::SOS1 (Homo sapiens, UniProt Q07889)
T1 sequence (Q07889 1-1333): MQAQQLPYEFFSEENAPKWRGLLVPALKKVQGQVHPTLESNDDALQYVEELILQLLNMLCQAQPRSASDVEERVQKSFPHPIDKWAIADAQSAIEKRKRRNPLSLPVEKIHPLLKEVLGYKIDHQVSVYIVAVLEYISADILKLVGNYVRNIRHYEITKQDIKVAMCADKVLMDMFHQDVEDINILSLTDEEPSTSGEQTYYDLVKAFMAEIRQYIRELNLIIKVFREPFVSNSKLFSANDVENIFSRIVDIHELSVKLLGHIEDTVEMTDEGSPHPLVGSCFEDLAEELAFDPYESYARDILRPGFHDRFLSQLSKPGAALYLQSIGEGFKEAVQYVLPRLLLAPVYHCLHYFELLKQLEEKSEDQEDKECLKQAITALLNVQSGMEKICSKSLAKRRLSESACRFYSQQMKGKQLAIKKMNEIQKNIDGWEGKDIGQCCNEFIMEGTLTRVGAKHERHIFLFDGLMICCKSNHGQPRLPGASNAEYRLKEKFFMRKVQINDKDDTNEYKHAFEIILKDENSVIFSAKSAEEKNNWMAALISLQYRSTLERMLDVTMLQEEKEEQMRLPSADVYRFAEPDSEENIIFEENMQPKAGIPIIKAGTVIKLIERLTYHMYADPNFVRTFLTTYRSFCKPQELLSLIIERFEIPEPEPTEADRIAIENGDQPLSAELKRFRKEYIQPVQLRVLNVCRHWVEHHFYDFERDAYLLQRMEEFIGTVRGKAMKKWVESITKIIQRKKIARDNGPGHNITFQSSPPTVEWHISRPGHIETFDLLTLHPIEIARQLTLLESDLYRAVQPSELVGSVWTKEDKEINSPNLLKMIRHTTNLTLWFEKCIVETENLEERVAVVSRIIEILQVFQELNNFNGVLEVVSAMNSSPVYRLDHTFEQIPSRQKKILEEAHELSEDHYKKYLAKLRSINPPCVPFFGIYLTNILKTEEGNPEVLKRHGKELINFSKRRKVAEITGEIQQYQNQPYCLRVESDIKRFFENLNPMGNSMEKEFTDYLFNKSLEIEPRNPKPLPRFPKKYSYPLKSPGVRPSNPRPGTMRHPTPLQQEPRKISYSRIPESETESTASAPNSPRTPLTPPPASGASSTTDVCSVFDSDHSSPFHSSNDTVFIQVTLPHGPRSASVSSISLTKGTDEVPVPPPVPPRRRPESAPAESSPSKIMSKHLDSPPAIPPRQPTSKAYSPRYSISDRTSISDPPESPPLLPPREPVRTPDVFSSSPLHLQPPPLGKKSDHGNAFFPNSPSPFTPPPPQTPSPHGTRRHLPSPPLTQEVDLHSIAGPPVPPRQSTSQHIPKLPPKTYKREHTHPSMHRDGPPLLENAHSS
Assay: KRAS G12C::SOS1 protein-protein interaction (PPI) inhibition assay (HTRF binding kit)
Method: Protein-protein interaction between SOS1 and KRAS^G12C was detected using KRAS G12C/SOS1 binding kit from CISBIO (64KRASG12PEH, CISBIO, FRANCE) according to the manufacturer's assay method. Briefly, the maximum concentration of an inhibitor sample was set to be 3 µM, and the inhibitor sample was diluted 7 times by 1/3, and samples having a total of 8 concentrations were prepared. In HTRF (Homogeneous Time-Resolved Fluorescence) exclusive 96-well low-volume white plate (66PL96005, CISBIO, FRANCE), 2 µL of an inhibitor sample prepared for each concentration, 5 µL of a mixed solution of Tag1-labeled KRAS^G12C protein and GTP diluted with the dilution solution provided by the manufacturer, and 5 µL of Tag2 labeled SOS1 protein were mixed, and added with 8 µL of a diluted solution where anti-Tag1 KRAS^G12C XL665 (HTRF acceptor) labeled antibody and anti-Tag2 SOS1 Terbium cryptate (HTRF donor) labeled antibody were mixed in an equal ratio and incubated at room temperature for 2 h.

`C[C@@H](NC(=O)c1ccc(=O)n(-c2cnn(C)c2)n1)c1cc(N)cc(C(F)(F)F)c1` [Example 200, N-[(1R)-1-[3-amino-5-(trifluoromethyl)phenyl]ethyl]-1-(1-methylpyrazol-4-yl)-6-oxo-pyridazine-3-carboxamide] and `C[C@@H](NC(=O)c1ccc(=O)n(-c2cnn(C)c2)c1)c1cc(N)cc(C(F)(F)F)c1` [Example 165, N-[(1R)-1-[3-amino-5-(trifluoromethyl)phenyl]ethyl]-1-(1-methylpyrazol-4-yl)-6-oxo-pyridine-3-carboxamide] cannot be ordered by IC50: under 1000 nM for the first, under 1000 nM for the second.

`C[C@H](O)c1cccc(-n2nc(C(=O)N[C@H](C)c3cc(N)cc(C(F)(F)F)c3)ccc2=O)c1` [Example 174, N-[(1R)-1-[3-amino-5-(trifluoromethyl)phenyl]ethyl]-1-[3-[(1S)-1-hydroxyethyl]phenyl]-6-oxo-pyridazine-3-carboxamide] and `C[C@@H](NC(=O)c1ccc(=O)n(-c2cccc(C(N)=O)c2)n1)c1cc(N)cc(C(F)(F)F)c1` [Example 252, N-[(1R)-1-[3-amino-5-(trifluoromethyl)phenyl]ethyl]-1-(3-carbamoylphenyl)-6-oxo-pyridazine-3-carboxamide] cannot be ordered by IC50: under 1000 nM for the first, under 1000 nM for the second.

Compared with `C[C@@H](NC(=O)c1ccc(=O)n(-c2cccc(-c3ccno3)c2)n1)c1cc(N)cc(C(F)(F)F)c1` [Example 342, N-[(1R)-1-[3-amino-5-(trifluoromethyl)phenyl]ethyl]-1-(3-isoxazol-5-ylphenyl)-6-oxo-pyridazine-3-carboxamide], `C[C@@H](NC(=O)c1ccc(=O)n(-c2cccc(-c3ncco3)c2)n1)c1cc(N)cc(C(F)(F)F)c1` [Example 239, N-[(1R)-1-[3-amino-5-(trifluoromethyl)phenyl]ethyl]-1-[3-(1,3-oxazol-2-yl)phenyl]-6-oxo-1,6-dihydropyridazine-3-carboxamide] is higher in IC50: under 1000 nM for the first, 1000 to 10000 nM for the second.

`Cc1c([C@@H](C)NC(=O)c2ccc(=O)n(-c3ccccc3F)n2)cccc1C(F)(F)CO` [Example 246, N-[(1R)-1-[3-(1,1-difluoro-2-hydroxy-ethyl)-2-methyl-phenyl]ethyl]-1-(2-fluorophenyl)-6-oxo-pyridazine-3-carboxamide] and `C[C@@H](NC(=O)c1ccc(=O)n(-c2ccccc2F)n1)c1cccc(C(F)(F)CO)c1F` [Example 217, N-[(1R)-1-[3-(1,1-difluoro-2-hydroxy-ethyl)-2-fluoro-phenyl]ethyl]-1-(2-fluorophenyl)-6-oxo-pyridazine-3-carboxamide] cannot be ordered by IC50: under 1000 nM for the first, under 1000 nM for the second.

`C[C@@H](NC(=O)c1ccc(=O)n(Cc2ccccc2)n1)c1cc(N)cc(C(F)(F)F)c1` [Example 227, N-[(1R)-1-[3-amino-5-(trifluoromethyl)phenyl]ethyl]-1-benzyl-6-oxo-pyridazine-3-carboxamide] and `C[C@@H](NC(=O)c1ccc(=O)n(-c2cccc(-c3ccn(C(F)F)n3)c2)n1)c1cc(N)cc(C(F)(F)F)c1` [Example 344, N-[(1R)-1-[3-amino-5-(trifluoromethyl)phenyl]ethyl]-1-[3-[1-(difluoromethyl)pyrazol-3-yl]phenyl]-6-oxo-pyridazine-3-carboxamide] cannot be ordered by IC50: under 1000 nM for the first, under 1000 nM for the second.

`CNCc1ccc(C#N)cc1-c1ccc([C@@H](C)NC(=O)c2ccc(=O)n(-c3ccccc3F)n2)s1` [Example 410] and `CNCc1ccccc1-c1ccc([C@@H](C)NC(=O)c2ccc(=O)n(-c3ccccc3F)n2)s1` [Example 298, 1-(2-fluorophenyl)-N-[(1R)-1-[5-[2-(methylaminomethyl)phenyl]-2-thienyl]ethyl]-6-oxo-pyridazine-3-carboxamide] cannot be ordered by IC50: under 1000 nM for the first, under 1000 nM for the second.

`C[C@@H](NC(=O)c1ccc(=O)n(-c2cccc(-c3nnnn3C)c2)c1)c1cc(N)cc(C(F)(F)F)c1` [Example 349, N-[(1R)-1-[3-amino-5-(trifluoromethyl)phenyl]ethyl]-1-[3-(1-methyltetrazol-5-yl)phenyl]-6-oxo-pyridine-3-carboxamide] and `C[C@@H](NC(=O)c1nn(-c2cnn(C)c2)c(=O)c2cc[nH]c12)c1cc(N)cc(C(F)(F)F)c1` [Example 307, N-[(1R)-1-[3-amino-5-(trifluoromethyl)phenyl]ethyl]-5-(1-methylpyrazol-4-yl)-4-oxo-1H-pyrrolo[2,3-d]pyridazine-7-carboxamide] cannot be ordered by IC50: under 1000 nM for the first, under 1000 nM for the second.

First: COc1ccc(-n2nc(C(=O)N[C@H](C)c3cc(N)cc(C(F)(F)F)c3)c(C3CC3)cc2=O)c(F)c1 [Example 367, N-[(1R)-1-[3-amino-5-(trifluoromethyl)phenyl]ethyl]-4-cyclopropyl-1-(2-fluoro-4-methoxy-phenyl)-6-oxo-pyridazine-3-carboxamide]
Second: C[C@@H](NC(=O)c1nn(-c2ccccc2F)c(=O)cc1NS(C)(=O)=O)c1cc(N)cc(C(F)(F)F)c1 [Example 384, N-[(1R)-1-[3-amino-5-(trifluoromethyl)phenyl]ethyl]-1-(2-fluorophenyl)-4-(methanesulfonamido)-6-oxo-pyridazine-3-carboxamide]
The IC50 of the first is higher: 1000 to 10000 nM for the first, under 1000 nM for the second.

`C[C@@H](NC(=O)c1nn(-c2cccnc2F)c(=O)c2ccsc12)c1cc(N)cc(C(F)(F)F)c1` [Example 311, N-[(1R)-1-[3-amino-5-(trifluoromethyl)phenyl]ethyl]-5-(2-fluoro-3-pyridyl)-4-oxo-thieno[2,3-d]pyridazine-7-carboxamide] and `C[C@@H](NC(=O)c1ccc(=O)n(-c2cccnc2F)n1)c1ccc(-c2cc(F)ccc2CCN)s1` [Example 414, N-[(1R)-1-[5-[2-(2-aminoethyl)-5-fluorophenyl]-2-thienyl]ethyl]-1-(2-fluoro-3-pyridyl)-6-oxopyridazine-3-carboxamide] cannot be ordered by IC50: under 1000 nM for the first, under 1000 nM for the second.

First: CC(=O)Nc1cc(=O)n(-c2ccccc2F)nc1C(=O)N[C@H](C)c1cccc(C(F)(F)COC(C)=O)c1F [Example 380, [2-[3-[(1R)-1-[[4-acetamido-1-(2-fluorophenyl)-6-oxo-pyridazine-3-carbonyl]amino]ethyl]-2-fluoro-phenyl]-2,2-difluoro-ethyl] acetate]
Second: C[C@@H](NC(=O)c1ccc(=O)n(-c2c(F)cccc2F)n1)c1cccc(C(F)(F)CO)c1F [Example 357, N-[(1R)-1-[3-(1,1-difluoro-2-hydroxy-ethyl)-2-fluoro-phenyl]ethyl]-1-(2,6-difluorophenyl)-6-oxo-pyridazine-3-carboxamide]
The IC50 of the first is lower: under 1000 nM for the first, 1000 to 10000 nM for the second.

First: C[C@@H](NC(=O)c1ccc(=O)n(-c2cccnc2)c1)c1cccc(C(F)(F)CO)c1F [Example 175, N-[(1R)-1-[3-(1,1-difluoro-2-hydroxy-ethyl)-2-fluoro-phenyl]ethyl]-6-oxo-1-(3-pyridyl)pyridine-3-carboxamide]
Second: C[C@@H](NC(=O)c1ccc(=O)n(-c2cccnc2F)c1)c1cccc(C(F)(F)CO)c1F [Example 147, N-[(1R)-1-[3-(1,1-difluoro-2-hydroxy-ethyl)-2-fluoro-phenyl]ethyl]-1-(2-fluoro-3-pyridyl)-6-oxo-pyridine-3-carboxamide]
The IC50 of the first is higher: 1000 to 10000 nM for the first, under 1000 nM for the second.

`COCC(F)(F)c1cccc([C@@H](C)NC(=O)c2ccc(=O)n(-c3cccc(-c4cnnn4C)c3)n2)c1F` [Example 397] and `C[C@@H](NC(=O)c1ccc(=O)n(-c2cccc(-c3cncs3)c2)n1)c1cccc(C(F)(F)CO)c1F` [Example 339, N-[(1R)-1-[3-(1,1-difluoro-2-hydroxy-ethyl)-2-fluorophenyl]ethyl]-6-oxo-1-(3-thiazol-5-ylphenyl)pyridazine-3-carboxamide] cannot be ordered by IC50: under 1000 nM for the first, under 1000 nM for the second.

`C[C@@H](NC(=O)c1ccc(=O)n(-c2ccccc2)n1)c1cccc(S(F)(F)(F)(F)F)c1` [Example 190, 6-oxo-N-[(1R)-1-[3-(pentafluoro-λ6-sulfanyl)phenyl]ethyl]-1-phenyl-pyridazine-3-carboxamide] and `CNCc1ccc(F)cc1-c1ccc([C@@H](C)NC(=O)c2ccc(=O)n(-c3cccnc3NC)n2)s1` [Example 302, N-[(1R)-1-[5-[5-fluoro-2-(methylaminomethyl)phenyl]-2-thienyl]ethyl]-1-[2-(methylamino)-3-pyridyl]-6-oxo-pyridazine-3-carboxamide] cannot be ordered by IC50: under 1000 nM for the first, under 1000 nM for the second.

For `CNCc1ccc(Cl)cc1-c1ccc([C@@H](C)NC(=O)c2ccc(=O)n(-c3cnn(CCOC)c3)n2)s1` [Example 406], the IC50 was under 1000 nM.
